Here are results for two compounds from ChEMBL document CHEMBL1833910, “Identification and SAR of a new series of thieno[3,2-d]pyrimidines as Tpl2 kinase inhibitors” (Bioorg Med Chem Lett, 2011).

Test [1] has as its target Serine/threonine-protein kinase Chk2 (Homo sapiens) (UniProt O96017). The experiment in a line: Inhibition of CHK2 at 1 uM.
Test [2] concerns the target Hepatocyte growth factor receptor (Homo sapiens) (UniProt P08581). In words: Inhibition of MET at 1 uM.
Test [3] has as its target Cyclin-dependent kinase 2/cyclin A (Homo sapiens) (UniProt P24941+P20248+P78396). In words: Inhibition of CDK2/cyclin A. The format is protein-complex assay. The conditions noted are these: concentration not given here.
Test [4] has as its target T1, Serine/threonine-protein kinase Chk1 (Homo sapiens) (UniProt O14757).
T1 sequence (whole entry): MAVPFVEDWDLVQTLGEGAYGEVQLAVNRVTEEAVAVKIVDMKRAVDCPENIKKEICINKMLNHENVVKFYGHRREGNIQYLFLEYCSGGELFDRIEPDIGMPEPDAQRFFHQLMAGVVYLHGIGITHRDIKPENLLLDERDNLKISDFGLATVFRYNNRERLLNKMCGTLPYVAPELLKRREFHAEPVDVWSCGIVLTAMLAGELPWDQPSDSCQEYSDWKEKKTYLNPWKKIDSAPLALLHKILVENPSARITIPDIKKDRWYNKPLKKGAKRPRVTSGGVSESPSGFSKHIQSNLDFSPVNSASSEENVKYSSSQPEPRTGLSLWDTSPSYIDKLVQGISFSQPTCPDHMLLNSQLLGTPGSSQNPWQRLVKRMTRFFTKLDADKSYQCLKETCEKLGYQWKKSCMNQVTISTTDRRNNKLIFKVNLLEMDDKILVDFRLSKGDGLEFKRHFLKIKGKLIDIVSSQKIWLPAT
In words: Inhibition of CHK1 at 1 uM.

In test [5] the target is Mitogen-activated protein kinase kinase kinase 8 (Homo sapiens, UniProt P41279). The experiment in a line: Inhibition of TPL2.
Test [6] has as its target Glycogen synthase kinase-3 beta (Homo sapiens) (UniProt P49841). In words: Inhibition of GSK3B at 1 uM.
Test [7] deals with Fibroblast growth factor receptor 1 (Homo sapiens) (UniProt P11362). The experiment in a line: Inhibition of FGFR1 at 1 uM.
Fibroblast growth factor receptor 1 (Homo sapiens), sequence (P11362 22-822 limits assumed): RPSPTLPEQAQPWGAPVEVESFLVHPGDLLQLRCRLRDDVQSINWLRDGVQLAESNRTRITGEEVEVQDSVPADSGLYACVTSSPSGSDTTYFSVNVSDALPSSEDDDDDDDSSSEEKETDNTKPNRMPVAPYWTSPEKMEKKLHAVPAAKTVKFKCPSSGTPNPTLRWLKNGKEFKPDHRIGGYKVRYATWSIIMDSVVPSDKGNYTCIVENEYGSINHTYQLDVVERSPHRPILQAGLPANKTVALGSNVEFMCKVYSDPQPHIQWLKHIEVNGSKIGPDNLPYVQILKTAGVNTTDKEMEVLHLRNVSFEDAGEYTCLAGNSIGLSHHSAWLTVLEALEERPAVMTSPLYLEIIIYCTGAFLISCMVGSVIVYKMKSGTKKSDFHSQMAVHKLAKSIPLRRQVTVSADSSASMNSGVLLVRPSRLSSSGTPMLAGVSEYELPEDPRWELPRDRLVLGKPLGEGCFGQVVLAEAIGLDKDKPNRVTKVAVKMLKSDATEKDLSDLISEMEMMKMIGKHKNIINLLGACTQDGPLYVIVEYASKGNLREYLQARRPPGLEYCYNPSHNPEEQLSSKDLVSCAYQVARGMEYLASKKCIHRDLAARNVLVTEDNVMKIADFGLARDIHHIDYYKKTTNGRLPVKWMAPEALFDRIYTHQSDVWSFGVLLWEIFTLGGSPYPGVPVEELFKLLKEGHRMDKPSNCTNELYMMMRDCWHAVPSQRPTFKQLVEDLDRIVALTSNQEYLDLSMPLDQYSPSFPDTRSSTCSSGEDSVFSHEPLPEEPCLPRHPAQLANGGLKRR

Hepatocyte growth factor receptor (Homo sapiens), sequence (P08581 whole entry): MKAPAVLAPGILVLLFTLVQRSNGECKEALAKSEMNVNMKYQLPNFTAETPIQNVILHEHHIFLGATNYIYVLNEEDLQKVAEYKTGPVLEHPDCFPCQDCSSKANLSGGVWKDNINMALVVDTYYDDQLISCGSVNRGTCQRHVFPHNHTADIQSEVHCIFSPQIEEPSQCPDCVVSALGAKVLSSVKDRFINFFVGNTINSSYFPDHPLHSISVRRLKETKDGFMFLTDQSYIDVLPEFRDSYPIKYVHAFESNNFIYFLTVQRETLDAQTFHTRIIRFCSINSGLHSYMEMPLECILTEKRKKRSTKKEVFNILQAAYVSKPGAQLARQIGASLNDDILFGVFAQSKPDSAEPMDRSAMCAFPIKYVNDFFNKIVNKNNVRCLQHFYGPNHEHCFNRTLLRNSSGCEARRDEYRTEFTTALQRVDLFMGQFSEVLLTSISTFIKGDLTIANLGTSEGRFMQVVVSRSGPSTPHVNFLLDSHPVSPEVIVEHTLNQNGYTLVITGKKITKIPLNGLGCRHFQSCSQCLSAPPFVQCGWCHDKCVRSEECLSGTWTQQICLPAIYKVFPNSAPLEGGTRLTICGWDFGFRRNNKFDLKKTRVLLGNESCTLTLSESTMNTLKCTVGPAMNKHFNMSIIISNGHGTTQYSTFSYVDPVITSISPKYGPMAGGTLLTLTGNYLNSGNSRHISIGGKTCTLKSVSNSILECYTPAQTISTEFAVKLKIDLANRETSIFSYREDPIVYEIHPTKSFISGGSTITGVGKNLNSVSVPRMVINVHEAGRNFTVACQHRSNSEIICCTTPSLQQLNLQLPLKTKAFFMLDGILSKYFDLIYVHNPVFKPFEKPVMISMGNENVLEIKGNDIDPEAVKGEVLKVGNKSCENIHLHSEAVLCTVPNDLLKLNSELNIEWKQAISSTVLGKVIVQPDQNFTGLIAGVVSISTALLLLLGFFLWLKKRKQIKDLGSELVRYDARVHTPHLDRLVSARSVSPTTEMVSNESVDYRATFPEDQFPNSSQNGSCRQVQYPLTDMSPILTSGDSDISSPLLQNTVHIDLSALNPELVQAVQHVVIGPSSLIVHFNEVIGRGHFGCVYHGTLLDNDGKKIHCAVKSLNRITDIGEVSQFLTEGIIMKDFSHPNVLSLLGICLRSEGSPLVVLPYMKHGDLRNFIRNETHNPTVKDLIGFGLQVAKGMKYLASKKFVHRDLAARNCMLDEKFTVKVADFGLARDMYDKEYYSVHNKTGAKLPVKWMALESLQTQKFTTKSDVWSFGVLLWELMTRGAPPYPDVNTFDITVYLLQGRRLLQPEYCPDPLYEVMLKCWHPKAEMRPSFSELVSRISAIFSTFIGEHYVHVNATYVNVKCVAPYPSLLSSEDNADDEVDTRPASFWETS
Glycogen synthase kinase-3 beta (Homo sapiens), sequence (P49841 whole entry, looked up): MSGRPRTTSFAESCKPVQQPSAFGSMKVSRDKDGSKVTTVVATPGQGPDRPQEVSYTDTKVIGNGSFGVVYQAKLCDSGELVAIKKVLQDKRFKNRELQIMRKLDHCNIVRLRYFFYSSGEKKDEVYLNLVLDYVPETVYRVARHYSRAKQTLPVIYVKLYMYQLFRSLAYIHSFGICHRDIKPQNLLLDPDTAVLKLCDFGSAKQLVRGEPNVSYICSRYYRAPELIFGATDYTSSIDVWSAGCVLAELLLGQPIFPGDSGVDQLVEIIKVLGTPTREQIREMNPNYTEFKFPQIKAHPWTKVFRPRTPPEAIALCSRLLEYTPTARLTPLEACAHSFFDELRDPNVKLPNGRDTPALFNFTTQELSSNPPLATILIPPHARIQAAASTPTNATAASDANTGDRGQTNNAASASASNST
Serine/threonine-protein kinase Chk2 (Homo sapiens), sequence (O96017 whole entry): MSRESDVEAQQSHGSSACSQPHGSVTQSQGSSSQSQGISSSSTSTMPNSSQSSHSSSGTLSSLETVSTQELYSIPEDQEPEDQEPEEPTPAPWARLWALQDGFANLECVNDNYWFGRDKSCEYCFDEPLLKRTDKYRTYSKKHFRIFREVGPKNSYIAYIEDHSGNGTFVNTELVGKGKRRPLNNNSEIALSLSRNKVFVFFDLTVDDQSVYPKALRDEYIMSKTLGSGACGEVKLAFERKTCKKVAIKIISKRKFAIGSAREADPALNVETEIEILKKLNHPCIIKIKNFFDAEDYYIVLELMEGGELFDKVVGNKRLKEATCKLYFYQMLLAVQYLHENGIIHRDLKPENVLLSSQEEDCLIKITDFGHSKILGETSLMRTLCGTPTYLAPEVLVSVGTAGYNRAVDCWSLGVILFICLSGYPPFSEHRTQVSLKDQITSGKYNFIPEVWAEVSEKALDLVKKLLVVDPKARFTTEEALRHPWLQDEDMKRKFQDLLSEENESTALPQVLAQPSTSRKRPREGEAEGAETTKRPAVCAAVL
Mitogen-activated protein kinase kinase kinase 8, sequence (P41279 whole entry): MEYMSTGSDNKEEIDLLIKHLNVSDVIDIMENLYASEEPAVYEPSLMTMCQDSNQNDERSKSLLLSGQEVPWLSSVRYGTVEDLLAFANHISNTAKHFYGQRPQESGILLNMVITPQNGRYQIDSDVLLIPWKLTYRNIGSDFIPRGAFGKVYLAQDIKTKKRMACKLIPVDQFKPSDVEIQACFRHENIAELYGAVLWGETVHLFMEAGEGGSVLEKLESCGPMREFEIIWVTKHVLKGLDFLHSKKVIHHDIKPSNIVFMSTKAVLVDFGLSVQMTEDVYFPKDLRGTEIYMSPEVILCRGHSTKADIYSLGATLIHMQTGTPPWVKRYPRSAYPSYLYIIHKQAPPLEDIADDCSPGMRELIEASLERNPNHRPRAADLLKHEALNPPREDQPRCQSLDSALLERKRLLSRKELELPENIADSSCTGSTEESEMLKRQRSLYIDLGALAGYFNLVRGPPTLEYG

Regarding `O=C(O)COc1ncnc2cc(-c3ccc4[nH]ncc4c3)sc12`, the inhibition was -2.3% in test [1]; 21.8% in test [2]; 27.3% in test [3]; -7.8% in test [4]; 56.5% in test [6]; 3.3% in test [7]. In test [5], this compound showed an IC50 of 1000 nM.
In the case of `CC(=O)Nc1ccc(-c2cc3ncnc(SCC(=O)O)c3s2)cc1`, the inhibition in test [1] is 10.8%; in test [2] it was 9.8%; in test [3], 46.8%; in test [4], -0.8%; in test [6] it was 50.5%; in test [7], 11%. For the same compound, the IC50 in test [5] came to 180 nM.
